Data: patent US20240299356A1, “DEVELOPMENT OF PRMT-TARGETING THERAPY TO ENHANCE EGFR-TARGETING DRUG EFFICACY IN NSCLC” (The Regents of the University of California, priority 2021, published 2024)

Columns and labels:
Format in all cases: cell-based
lung cancer cell lines = test: Drug tolerance in lung cancer cell models
Procedure: FIGS. 3A-3D present exemplary data showing that Type I PRMT inhibition enhanced cancer drug efficacy. […] FIGS. 3B-3D present data showing the correlation between endogenous STAT1 expression levels and the efficacy of type I PRMT inhibition. […] Gray dots indicate cell lines that were tested for the efficacies of type I PRMT inhibition (by MS023).
(§1) Can type I PRMT inhibition provide a general strategy for reducing drug tolerance and enhance efficacies of SOC drugs? STAT1 signaling can be activated by various sources in tumors, including interferon (IFN)-producing immune cells in the tumor microenvironment, endogenous nucleic acids, and cancer therapeutics (FIG. 2H)^31. […] We also observed efficacy of MS023 with gemcitabine in various pancreatic cancer cell lines (FIG. 6A).

[1] = system: pancreatic cancer cell lines; test: Drug tolerance in gemcitabine-treated pancreatic cancer cell lines; conditions: FIG. 6A
Excerpt: FIGS. 6A-6E present exemplary data showing that Type I PRMT inhibition enhances cancer drug efficacy.
as §1

PABP2 = PABP2 arginine methylation by mass spectrometry; conditions: mass spectrometry (FIGS. 2G, 5P, 5Q)
Procedure: (§2) FIG. 2A is a line graph showing that knockout of STAT1 by CRISPR blocked IFNγ-induced change of drug-tolerant subpopulation size. […] FIG. 2D is a line graph showing homozygous knockout of STAT1 by CRISPR (tolerance model: PC9 treated with 2.5 μM erlotinib). […] Relative intensities were measured from by mass spectrometry experiments. FIG. 2H is a diagram of STAT1-mediated drug tolerance and type I PRMT vulnerability to eliminate drug tolerance.
(§3) FIG. 5C is a line graph showing that STAT1 modulated cancer drug tolerance, and knockdown of STAT1 by siRNA blocked IFNγ-induced change of drug-tolerant subpopulation size. […] FIG. 5E is a bar graph showing that cancer drug treatment (EGFR drugs and other cytotoxic stressors) enhanced STAT1 expression across multiple cell lines. […] Tolerance model for FIG. 5G: PC9 treated with 2.5 μM erlotinib. FIG. 5H presents exemplary data showing differential gene expression in erlotinib-tolerant PC9 cells comparing to parental cells. The top panel of FIG. 5H is a volcano plot in which IRDS genes are shown in black. The bottom panel of FIG. 5H is a line graph showing the accumulative distribution of adjusted p-values of IRDS genes (gray) versus all genes excluding IRDS genes (black). FIG. 5I is a line graph showing the knockdown of STAT1 by siRNA. […] Relative intensities were measured from by mass spectrometry experiments. […]

STAT1 mRNA = STAT1 mRNA level; conditions: FIG. 5M
Procedure: as §3, with “siRNA. FIG. 5J is a line graph showing the homozygous knockout of STAT1 by CRISPR. Tolerance model for FIGS. 5I and 5J: PC9 treated with 2.5 μM erlotinib. […] PC9 cells were pretreated with MS023 for one day, followed by co-treatment of erlotinib, and perturbations of protein synthesis or degradation for 16 hours. Cycloheximide (CHX): protein synthesis inhibitor. Bortezomib (Bort): proteasome inhibitor. Ammonium chloride (NH4Cl)): lysosomal function inhibitor.” for “siRNA.”

STAT1 = STAT1 protein expression (Western blot)
Procedure: as §2
FIG. 5C is a line graph showing that STAT1 modulated cancer drug tolerance, and knockdown of STAT1 by siRNA blocked IFNγ-induced change of drug-tolerant subpopulation size. […] FIG. 5E is a bar graph showing that cancer drug treatment (EGFR drugs and other cytotoxic stressors) enhanced STAT1 expression across multiple cell lines. […] Tolerance model for FIG. 5G: PC9 treated with 2.5 μM erlotinib. FIG. 5H presents exemplary data showing differential gene expression in erlotinib-tolerant PC9 cells comparing to parental cells. The top panel of FIG. 5H is a volcano plot in which IRDS genes are shown in black. The bottom panel of FIG. 5H is a line graph showing the accumulative distribution of adjusted p-values of IRDS genes (gray) versus all genes excluding IRDS genes (black). FIG. 5I is a line graph showing the knockdown of STAT1 by siRNA. FIG. 5J is a line graph showing the homozygous knockout of STAT1 by CRISPR. Tolerance model for FIGS. 5I and 5J: PC9 treated with 2.5 μM erlotinib. […] PC9 cells were pretreated with MS023 for one day, followed by co-treatment of erlotinib, and perturbations of protein synthesis or degradation for 16 hours. Cycloheximide (CHX): protein synthesis inhibitor. Bortezomib (Bort): proteasome inhibitor. Ammonium chloride (NH4Cl)): lysosomal function inhibitor. […] FIG. 5P is a bar graph showing type I PRMTs methylate PABP2 at multiple arginine residues. Relative intensities were measured from by mass spectrometry experiments.
What is the connection between type I PRMTs and IFNγ signaling-modulated drug tolerance? […] Previous work in other systems identified STAT1 or its regulator PIAS1 as direct substrates of type I PRMTs^27, though we could not find evidence for their arginine methylation in our system (data not shown).

PD-L1 [2] = test: PD-L1 expression in MGH119; conditions: lung cancer cell MGH119 (FIG. 12A)
[3] = system: PC9 STAT1 knockdown / homozygous knockout cells; test: Drug tolerance assay in PC9 with STAT1 knockdown or knockout; conditions: PC9 treated with 2.5 μM erlotinib
Procedure: as §2, §3

PC9 [4] = test: Emergence of drug-tolerant persisters, two-month co-treatment with erlotinib; conditions: IFNγ stimulation, PC9, 2.5 μM erlotinib (FIG. 1F)
Excerpt: (§4) FIGS. 1A-1F present exemplary data showing that Type I PRMT inhibition reduced IFNγ signaling-modulated drug tolerance. FIG. 1A present a three-step approach aimed at investigating drug tolerance. FIG. 1B is a line graph showing PC9 cell viabilities under six-day treatment of various doses of erlotinib in the context of IFNγ. […] FIG. 1E is a line graph showing that inhibition of type I PRMTs by MS023 reduced cancer drug tolerance specifically in the IFNγ/STAT1 activation context (normalized to DMSO controls in corresponding IFNγ contexts). Tolerance model for FIG. 1E: PC9 treated with 2.5 μM erlotinib for six days. […] Tolerance model: PC9 treated with 2.5 μM erlotinib.
Third, we searched for perturbations that reduce IFNγ-stimulated drug tolerance within a collection of compounds of known biological functions and targets. […] Thus, type I PRMT inhibition is a vulnerability of IFNγ signaling-stimulated drug tolerance.

[5] = system: solid tumors with wild type splicing factors (e.g. SRSF2, SF3B1, U2AF1); test: Proliferation of solid tumors with wild type splicing factors; conditions: FIG. 9
PD-L1 [6] = test: PD-L1 expression in MIAPACA2; conditions: pancreatic cancer cell MIAPACA2 (FIG. 12B)
PC9 [7] = test: Drug tolerance assay: surviving fraction of PC9 cells under continuous erlotinib
Excerpt: as §4
FIGS. 4A-4F present exemplary data showing that Type I PRMT inhibition reduces IFNγ signaling-modulated drug tolerance. FIG. 4A is a line graph showing the pro-survival effects of IFNγ in a variety of cell types with the cytotoxic inducers. Six-day tolerance assay in lung cancer cells was performed under 2.5 μM erlotinib or 50 μM carboplatin. FIG. 4B is a line graph showing PC9 cells co-treated with IFNγ and cytotoxic stressors (EGFR inhibitor Gefitinib, PARP inhibitor olaparib, death ligand TRAIL, procaspase-3 activator PAC-1), and cell viabilities were measured by Cell TiterGlo after six days. FIG. 4C is a bar-graph showing PRMT1 knockdown efficiency measured by qPCR after two days of siRNA transfection. FIG. 4D is a line graph showing that inhibition of type I PRMTs by MS023 reduced cancer drug tolerance specifically in the IFNγ/STAT1 activation context (normalized to DMSO control in (−) IFNγ context). Tolerance model for FIG. 4D: PC9 treated with 2.5 μM erlotinib for six days. FIG. 4E is a line graph showing that inhibition of type I PRMTs by GSK3368715 reduced cancer drug tolerance specifically in the IFNγ/STAT1 activation context (normalized to DMSO controls in corresponding IFNγ contexts). FIG. 4F is a line graph line graphs showing that inhibition of type I PRMTs by GSK3368715 reduced cancer drug tolerance specifically in the IFNγ/STAT1 activation context (normalized to DMSO control in (−) IFNγ context). Tolerance model for FIGS. 4E and 4F: PC9 treated with 2.5 μM erlotinib for six days.
To investigate drug tolerance, we undertook a three-step approach (FIG. 1A). First, we established reproducible assays to monitor small subpopulations of cancer cells that survive sustained SOC drug treatment. We initially selected the well-established drug-tolerance model provided by the EGFR-mutant lung cancer cell line PC9 and EGFR inhibitor erlotinib^1,2,6. The effect of perturbations to drug tolerance was assessed by quantifying changes to the fraction of the small subpopulation of surviving (drug-tolerant) cells after approximately one week of continuous drug treatment.

[8] = system: AKT, ERK and STAT3 pathway; test: EGFR bypass signaling (AKT, ERK and STAT3 pathway); conditions: FIG. 5A

## CC(C)Oc1ccc(-c2c[nH]cc2CN(C)CCN)cc1 [MS023]
Lung cancer cell lines; EGFR mutant cell lines with T790M resistance mutation, IFNγ stimulation (FIG. 3A middle)
  drug tolerance in osimertinib-treated lung cancers: reduced drug tolerance
Lung cancer cell lines; EGFR wild type cell lines, IFNγ stimulation (FIG. 3A bottom)
  drug tolerance in carboplatin-treated lung cancers: reduced drug tolerance
Lung cancer cell lines; lung (erlotinib, osimertinib, carboplatin) and pancreatic (gemcitabine) cancer cell models, IFNγ stimulation
  IC50 on reducing drug tolerance: sub- to low-micromolar range
Lung cancer cell lines; multiple EGFR mutant cell lines, IFNγ stimulation (FIG. 3A top)
  drug tolerance in erlotinib-treated lung cancers: reduced drug tolerance
[1]
  drug tolerance in gemcitabine-treated pancreatic cancers: reduced drug tolerance
PABP2
  dimethylation of PABP2 arginine residues: reduced the detected dimethylation of PABP2
STAT1 mRNA
  STAT1 mRNA: did not reduce STAT1 mRNA
STAT1; PC9 pretreated one day, then erlotinib plus cycloheximide, bortezomib or NH4Cl for 16 hours (FIG. 5N)
  mechanism of the reduction of STAT1 expression: alteration in protein synthesis
STAT1; independent of IFNγ or erlotinib, multiple cancer cell lines (FIGS. 2E, 5K, 5L)
  total STAT1 protein level: downregulated total STAT1 protein level
PD-L1 [2]
  expression of immune checkpoint protein PD-L1: reduced the expression
[3]; CRISPR STAT1 knockout (FIGS. 2D, 5J)
  efficacy on drug tolerance in STAT1 homozygous knockout cells: no efficacy
[3]; STAT1 siRNA (FIG. 5I)
  efficacy on drug tolerance after STAT1 knockdown: dramatically compromised
PC9 [4]
  expansion of drug-tolerant cells (persisters): durably reduced the expansion of drug-tolerant cells
[5]
  proliferation: reduced the proliferation
PD-L1 [6]
  expression of immune checkpoint protein PD-L1: reduced the expression
PC9 [7]; PC9 treated with 2.5 μM erlotinib for six days, with or without IFNγ (FIGS. 1E, 4D-4F)
  effect on reducing drug tolerance, dependence on IFNγ: only observed in the presence of IFNγ stimulation
PC9 [7]; across a wide range of IFNγ concentrations (FIG. 1C)
  drug tolerance in the PC9/erlotinib model system: reduced drug tolerance

## C#Cc1cccc(Nc2ncnc3cc(OCCOC)c(OCCOC)cc23)c1 [erlotinib]
STAT1; combined with IFNγ, PC9 cells (FIG. 5D)
  total STAT1 as opposed to P-STAT1: synergizes with IFNγ to increase total STAT1

B1: IFNγ: dimerized soluble cytokine, the only member of the type II class of interferons (protein, UniProt P01579 24-161, looked up)
Interferon gamma: QDPYVKEAENLKKYFNAGHSDVADNGTLFLGILKNWKEESDRKIMQSQIVSFYFKLFKNFKDDQSIQKSVETIKEDMNVKFFNSNKKKRDDFEKLTNYSVTDLNVQRKAIHELIQVMAELSPAAKTGKRKRSQMLFRG
[8]
  reactivation of major EGFR bypass signaling: did not observe the reactivation
STAT1; PC9-erlotinib model system (FIG. 5B)
  STAT1 signaling (phosphorylation of STAT1, IRF1 transcription, STAT1 upregulation): activates STAT1 signaling
PC9 [7]; PC9/erlotinib and other models of tolerance (FIGS. 1B, 4A, 4B)
  drug tolerance at relatively low doses: increase tolerance
PC9 [7]; PC9/erlotinib, six-day treatment (FIG. 1B)
  drug tolerance at relatively high doses: decreases drug tolerance
